# Results taken from US20230293518A1 (Edgewise Therapeutics, Inc., priority 2020, published 2023).
# Target: skeletal myofibrils (myosin ATPase)
# Assay: Skeletal Myofibril ATPase Assay
# Assay type: biochemical
# Settings: Table 4C
# Outline: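 Skeletal myofibril ATPase activity was measured via PK-LDH coupling, following NADH loss at 340 nm every 1.5-2 min for 45 min in PIPES/CaCl2/EGTA pCa buffer, pH 7.0. Max−Min slopes were normalised to 1% DMSO vehicle (100%) and fit to a four-parameter logistic (bottom ≥0) for IC50.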
row,SMILES,IC50 [µM]
1,"COc1ccc(-c2ccc(=O)n(CC(=O)NCc3ccccc3Cl)n2)cc1 [IIIb-1, N-(2-chlorobenzyl)-2-(3-(4-methoxyphenyl)-6-oxopyridazin-1(6H)-yl)acetamide]",< 10
2,"CC(C)c1cccc(NC(=O)Cn2nc(-c3ccc4c(c3)OCCCO4)ccc2=O)c1 [IIIb-5, 2-(3-(3,4-dihydro-2H-benzo[b][1,4]dioxepin-7-yl)-6-oxopyridazin-1(6H)-yl)-N-(3-isopropylphenyl)acetamide]",< 10
3,"O=C(Cn1nc(-c2ccc3c(c2)OCCO3)ccc1=O)Nc1ccccc1F [IIIb-6, 2-(3-(2,3-dihydrobenzo[b][1,4]dioxin-6-yl)-6-oxopyridazin-1(6H)-yl)-N-(2-fluorophenyl)acetamide]",< 10
4,"COc1ccc(-c2ccc(=O)n(CC(=O)NC3Cc4ccccc4C3)n2)cc1 [IIIb-8, N-(2,3-dihydro-1H-inden-2-yl)-2-(3-(4-methoxyphenyl)-6-oxopyridazin-1(6H)-yl)acetamide]",< 10
5,"COc1ccc(-c2ccc(=O)n(CC(=O)NCCC3=CCCCC3)n2)cc1 [IIIb-14, N-(2-(cyclohex-1-en-1-yl)ethyl)-2-(3-(4-methoxyphenyl)-6-oxopyridazin-1(6H)-yl)acetamide]",< 10
6,"COc1ccc(-c2ccc(=O)n(CC(=O)Nc3ccc4c(c3)OCCO4)n2)cc1 [IIIb-16, N-(2,3-dihydrobenzo[b][1,4]dioxin-6-yl)-2-(3-(4-methoxyphenyl)-6-oxopyridazin-1(6H)-yl)acetamide]",< 10
7,"COc1ccc(-c2ccc(=O)n(CC(=O)NC(C)C)n2)cc1 [IIIb-18, N-isopropyl-2-(3-(4-methoxyphenyl)-6-oxopyridazin-1(6H)-yl)acetamide]",10 to 100
8,"COc1ccc(-c2ccc(=O)n(CC(=O)NCc3ccccc3)n2)cc1 [IIIb-20, N-benzyl-2-(3-(4-methoxyphenyl)-6-oxopyridazin-1(6H)-yl)acetamide]",10 to 100
9,"COc1ccc(-c2ccc(=O)n(CC(=O)NC3CC3)n2)cc1 [IIIb-22, N-cyclopropyl-2-(3-(4-methoxyphenyl)-6-oxopyridazin-1(6H)-yl)acetamide]",10 to 100
10,"COc1ccc(-c2ccc(=O)n(CC(=O)NC3CCCC3)n2)cc1 [IIIb-23, N-cyclopentyl-2-(3-(4-methoxyphenyl)-6-oxopyridazin-1(6H)-yl)acetamide]",10 to 100
11,"O=C(Cn1nc(-c2ccc3c(c2)OCCCO3)ccc1=O)NC1CCCCCC1 [IIIb-24, N-cycloheptyl-2-(3-(3,4-dihydro-2H-benzo[b][1,4]dioxepin-7-yl)-6-oxopyridazin-1(6H)-yl)acetamide]",10 to 100
12,"C[C@@H](NC(=O)Cn1nc(-c2ccc3c(c2)OCCCO3)ccc1=O)c1ccc(F)cc1 [IIIb-26, (R)-2-(3-(3,4-dihydro-2H-benzo[b][1,4]dioxepin-7-yl)-6-oxopyridazin-1(6H)-yl)-N-(1-(4-fluorophenyl)ethyl)acetamide]",10 to 100
13,"COc1ccc(-c2ccc(=O)n(CC(=O)Nc3ccc4c(c3)OCO4)n2)cc1 [IIIb-28, N-(benzo[d][1,3]dioxol-5-yl)-2-(3-(4-methoxyphenyl)-6-oxopyridazin-1(6H)-yl)acetamide]",10 to 100
14,"COc1ccc(-c2ccc(=O)n(CC(=O)NCC(C)C)n2)cc1 [IIIb-29, N-isobutyl-2-(3-(4-methoxyphenyl)-6-oxopyridazin-1(6H)-yl)acetamide]",10 to 100
15,"COc1ccc(-c2ccc(=O)n(CC(=O)NC(C)CCc3ccccc3)n2)cc1 (stereo not shown) [IIIb-30, 2-(3-(4-methoxyphenyl)-6-oxopyridazin-1(6H)-yl)-N-(4-phenylbutan-2-yl)acetamide]",10 to 100
16,"COc1ccc(-c2ccc(=O)n(CC(=O)NCc3ccc(Cl)cc3)n2)cc1 [IIIb-31, N-(4-chlorobenzyl)-2-(3-(4-methoxyphenyl)-6-oxopyridazin-1(6H)-yl)acetamide]",10 to 100
17,"COc1ccc(CNC(=O)Cn2nc(-c3ccc(OC)cc3)ccc2=O)cc1 [IIIb-34, N-(4-methoxybenzyl)-2-(3-(4-methoxyphenyl)-6-oxopyridazin-1(6H)-yl)acetamide]",10 to 100
18,"COc1ccc(-c2ccc(=O)n(CC(=O)NCc3ccco3)n2)cc1 [IIIb-37, N-(furan-2-ylmethyl)-2-(3-(4-methoxyphenyl)-6-oxopyridazin-1(6H)-yl)acetamide]",10 to 100
19,"COc1ccc(-c2ccc(=O)n(CC(=O)NC[C@@H]3CC4C=CC3C4)n2)cc1 (stereo partly drawn) [IIIb-39, N-(((2R)-bicyclo[2.2.1]hept-5-en-2-yl)methyl)-2-(3-(4-methoxyphenyl)-6-oxopyridazin-1(6H)-yl)acetamide]",> 100
20,"COc1ccc(-c2ccc(=O)n(CC(=O)NCc3ccccc3Cl)n2)cc1OC [IIIb-40, N-(2-chlorobenzyl)-2-(3-(3,4-dimethoxyphenyl)-6-oxopyridazin-1(6H)-yl)acetamide]",> 100
21,"COc1ccc(-c2ccc(=O)n(CC(=O)NC3CCCCC3)n2)cc1 [IIIb-41, N-cyclohexyl-2-(3-(4-methoxyphenyl)-6-oxopyridazin-1(6H)-yl)acetamide]",> 100
22,"CCOc1ccc(-c2ccc(=O)n(CCNC(=O)CC3CCCC3)n2)cc1 [IIIb-43, 2-cyclopentyl-N-(2-(3-(4-ethoxyphenyl)-6-oxopyridazin-1(6H)-yl)ethyl)acetamide]",> 100
23,"CCc1ccc(-c2ccc(=O)n(CC(=O)Nc3ccc4c(c3)OCCO4)n2)cc1 [IIIb-44, N-(2,3-dihydrobenzo[b][1,4]dioxin-6-yl)-2-(3-(4-ethylphenyl)-6-oxopyridazin-1(6H)-yl)acetamide]",> 100
24,"COc1ccc(-c2ccc(=O)n(CC(=O)NC3CCCC3)n2)cc1OC [IIIb-45, N-cyclopentyl-2-(3-(3,4-dimethoxyphenyl)-6-oxopyridazin-1(6H)-yl)acetamide]",> 100

# Continued, values first:
row,IC50 [µM],SMILES
1,< 10,"COc1ccc(-c2ccc(=O)n(CC(=O)Nc3cccc4[nH]ccc34)n2)c(F)c1 [IIIb-2, 2-(3-(2-fluoro-4-methoxyphenyl)-6-oxopyridazin-1(6H)-yl)-N-(1H-indol-4-yl)acetamide]"
2,< 10,"COc1ccc(-c2ccc(=O)n(CC(=O)Nc3cccc4[nH]ccc34)n2)cc1 [IIIb-3, N-(1H-indol-4-yl)-2-(3-(4-methoxyphenyl)-6-oxopyridazin-1(6H)-yl)acetamide]"
3,< 10,"COc1ccc(-c2ccc(=O)n(CC(=O)Nc3cccc4c3ccn4C)n2)cc1 [IIIb-4, 2-(3-(4-methoxyphenyl)-6-oxopyridazin-1(6H)-yl)-N-(1-methyl-1H-indol-4-yl)acetamide]"
4,< 10,"COc1ccc(-c2ccc(=O)n(CC(=O)NCCC3=CCCCC3)n2)c(F)c1 [IIIb-7, N-(2-(cyclohex-1-en-1-yl)ethyl)-2-(3-(2-fluoro-4-methoxyphenyl)-6-oxopyridazin-1(6H)-yl)acetamide]"
5,< 10,"COc1ccc(-c2ccc(=O)n(CC(=O)NCCc3ccccc3)n2)c(F)c1 [IIIb-9, 2-(3-(2-fluoro-4-methoxyphenyl)-6-oxopyridazin-1(6H)-yl)-N-phenethylacetamide]"
6,< 10,"COc1ccc(-c2ccc(=O)n(CC(=O)Nc3cc(Cl)ccc3Cl)n2)cc1 [IIIb-10, N-(2,5-dichlorophenyl)-2-(3-(4-methoxyphenyl)-6-oxopyridazin-1(6H)-yl)acetamide]"
7,< 10,"COc1ccc(-c2ccc(=O)n(CC(=O)Nc3ccc(Cl)cc3Cl)n2)cc1 [IIIb-11, N-(2,4-dichlorophenyl)-2-(3-(4-methoxyphenyl)-6-oxopyridazin-1(6H)-yl)acetamide]"
8,< 10,"COc1ccc(-c2ccc(=O)n(CC(=O)Nc3cc(Cl)ccc3Cl)n2)c(F)c1 [IIIb-13, N-(2,5-dichlorophenyl)-2-(3-(2-fluoro-4-methoxyphenyl)-6-oxopyridazin-1(6H)-yl)acetamide]"
9,< 10,"COc1ccc(-c2ccc(=O)n(CC(=O)Nc3ccc4c(c3)OCCO4)n2)c(F)c1 [IIIb-15, N-(2,3-dihydrobenzo[b][1,4]dioxin-6-yl)-2-(3-(2-fluoro-4-methoxyphenyl)-6-oxopyridazin-1(6H)-yl)acetamide]"
10,10 to 100,"COc1ccc(-c2ccc(=O)n(CC(=O)NC(C)C)n2)c(F)c1 [IIIb-19, 2-(3-(2-fluoro-4-methoxyphenyl)-6-oxopyridazin-1(6H)-yl)-N-isopropylacetamide]"
11,10 to 100,COc1ccc(-c2ccc(=O)n(CC(=O)NCc3ccccc3OC)n2)cc1 [IIIb-21]
12,10 to 100,"COc1ccc(-c2ccc(=O)n(CC(=O)Nc3cc(OC)ccc3OC)n2)cc1 [IIIb-25, N-(2,5-dimethoxyphenyl)-2-(3-(4-methoxyphenyl)-6-oxopyridazin-1(6H)-yl)acetamide]"
13,10 to 100,"COc1ccc(-c2ccc(=O)n(CC(=O)Nc3ncccc3C)n2)cc1 [IIIb-27, 2-(3-(4-methoxyphenyl)-6-oxopyridazin-1(6H)-yl)-N-(3-methylpyridin-2-yl)acetamide]"
14,10 to 100,"COc1ccc(-c2ccc(=O)n(CC(=O)NCc3cccc(F)c3)n2)cc1 [IIIb-32, N-(3-fluorobenzyl)-2-(3-(4-methoxyphenyl)-6-oxopyridazin-1(6H)-yl)acetamide]"
15,10 to 100,"COc1ccc(-c2ccc(=O)n(CC(=O)Nc3ccc4c(c3)OCO4)n2)c(F)c1 [IIIb-33, N-(benzo[d][1,3]dioxol-5-yl)-2-(3-(2-fluoro-4-methoxyphenyl)-6-oxopyridazin-1(6H)-yl)acetamide]"
16,10 to 100,"COc1ccc(-c2ccc(=O)n(CC(=O)Nc3ccc(Cl)cc3Cl)n2)c(F)c1 [IIIb-35, N-(2,4-dichlorophenyl)-2-(3-(2-fluoro-4-methoxyphenyl)-6-oxopyridazin-1(6H)-yl)acetamide]"
17,10 to 100,"COc1ccc(-c2ccc(=O)n(CC(=O)NC(C)CCc3ccccc3)n2)c(F)c1 (stereo not shown) [IIIb-36, 2-(3-(2-fluoro-4-methoxyphenyl)-6-oxopyridazin-1(6H)-yl)-N-(4-phenylbutan-2-yl)acetamide]"
18,> 100,"COc1ccc(-c2ccc(=O)n(CC(=O)NCc3ccccc3F)n2)cc1 [IIIb-38, N-(2-fluorobenzyl)-2-(3-(4-methoxyphenyl)-6-oxopyridazin-1(6H)-yl)acetamide]"
19,> 100,"COc1ccc(-c2ccc(=O)n(CC(=O)NCc3ccc(F)cc3)n2)c(F)c1 [IIIb-46, 2-(3-(2-fluoro-4-methoxyphenyl)-6-oxopyridazin-1(6H)-yl)-N-(4-fluorobenzyl)acetamide]"
